Target: T1, human M4 muscarinic acetylcholine receptor (Homo sapiens, UniProt P08173)
T1 construct: expressed in transfected cells; host or cells: CHO-K1
T1 sequence (P08173 1-479): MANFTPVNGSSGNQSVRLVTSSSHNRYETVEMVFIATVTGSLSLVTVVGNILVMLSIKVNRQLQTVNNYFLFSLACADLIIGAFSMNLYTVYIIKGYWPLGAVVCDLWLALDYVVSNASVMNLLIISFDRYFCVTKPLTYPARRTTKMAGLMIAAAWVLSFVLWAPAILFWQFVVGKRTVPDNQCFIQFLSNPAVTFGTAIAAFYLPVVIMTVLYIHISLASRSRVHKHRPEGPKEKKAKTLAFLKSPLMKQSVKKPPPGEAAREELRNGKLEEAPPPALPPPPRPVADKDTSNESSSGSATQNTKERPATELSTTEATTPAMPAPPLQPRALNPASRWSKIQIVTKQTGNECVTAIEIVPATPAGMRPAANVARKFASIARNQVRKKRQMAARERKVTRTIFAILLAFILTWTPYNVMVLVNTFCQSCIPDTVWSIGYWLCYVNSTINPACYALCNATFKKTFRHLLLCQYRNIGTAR
Test: human FLIPR-based M4 PAM assay (calcium mobilization in CHO-K1 cells with human M4 receptor and Gαqi5)
Type: cell-based
Details: inflection point of dose response curve, acetylcholine at 20% of maximum response, FLIPR Tetra, read-out: M4 PAM IP
How it was run: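 CHO-K1 cells stably expressing human M4 and chimeric Gαqi5 were dye-loaded ~1 h at 37° C. Test compound was added with fluorescence recorded 4 min, then acetylcholine at EC20 (sometimes a further EC70 addition) with reading 3.5 min. Value is the inflection point of a 4-parameter logistic fit.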

SMILES | EC50
CN1Cc2ccc(-c3nc(Cl)ccc3-c3cnn(CC4CCCC4)c3)cc2C1=O [Example 107, 6-(6-Chloro-3-(1-(cyclopentylmethyl)-1H-pyrazol-4-yl)pyridin-2-yl)-2-methylisoindolin-1-one] | 15 nM
O=C1c2cc(-c3nc(Cl)ccc3-c3cnn(CC4CCCC4)c3)ccc2CN1C1CC1 [Example 108, 6-(6-chloro-3-(1-(cyclopentylmethyl)-1H-pyrazol-4-yl)pyridin-2-yl)-2-cyclopropylisoindolin-1-one] | 17 nM
Cc1cc(-c2cnn(CC3(C)CCCC3)c2)c(-c2ccc3c(c2)C(=O)N(C)C3)nc1C [Example 109, 6-(5,6-Dimethyl-3-(1-((1-methylcyclopentyl)methyl)-1H-pyrazol-4-yl)pyridin-2-yl)-2-methylisoindolin-1-one] | 48 nM
CN1Cc2ccc(-c3nc(C#N)ccc3-c3cn(CC4(C)CCCC4)nc3C#N)cc2C1=O [Example 110, 5-(3-Cyano-1-((1-methylcyclopentyl)methyl)-1H-pyrazol-4-yl)-6-(2-methyl-3-oxoisoindolin-5-yl)picolinonitrile] | 86 nM
Cc1cc(-c2cnn(CC3(C)CCCC3)c2)c(-c2ccc3c(c2)C(=O)N(C)C3)nc1C#N [Example 111, 3-Methyl-6-(2-methyl-3-oxoisoindolin-5-yl)-5-(1-((1-methylcyclopentyl)methyl)-1H-pyrazol-4-yl)picolinonitrile] | 35 nM
Cc1cc(-c2cnn(CC3(C)CCCC3)c2)c(-c2cnc3c(c2)C(=O)N(C)C3)nc1C#N [Example 112, 3-methyl-6-(6-methyl-5-oxo-6,7-dihydro-5H-pyrrolo[3,4-b]pyridin-3-yl)-5-(1-((1-methylcyclopentyl)-methyl)-1H-pyrazol-4-yl)picolinonitrile] | 27 nM
Cc1cc(-c2cnn(CC3(C)CCCC3)c2)c(-c2ccc3c(c2)C(=O)NC3)nc1C#N [Example 112A, 3-methyl-5-(1-((1-methylcyclopentyl)methyl)-1H-pyrazol-4-yl)-6-(3-oxoisoindolin-5-yl)picolinonitrile] | 36 nM
Cc1cc(-c2cnn(CC3(C)CCCC3)c2)c(-c2ccc3c(c2)C(=O)N(C)C3)nc1C(N)=O [Example 113, 3-Methyl-6-(2-methyl-3-oxoisoindolin-5-yl)-5-(1-((1-methylcyclopentyl)methyl)-1H-pyrazol-4-yl)picolinamide] | 69 nM
CC1(Cn2cc(-c3ccc(C(N)=O)nc3-c3ccc4c(c3)C(=O)NC4)cn2)CCCC1 [Example 113A, 5-(1-((1-methylcyclopentyl)methyl)-1H-pyrazol-4-yl)-6-(3-oxoisoindolin-5-yl)picolinamide] | 205 nM
Cc1cc(-c2cnn(CC3(C)CCCC3)c2)c(-c2ccc3c(c2)C(=O)N(C)C3)nc1CF [Example 114, 6-(6-(Fluoromethyl)-5-methyl-3-(1-((1-methylcyclopentyl)methyl)-1H-pyrazol-4-yl)pyridin-2-yl)-2-methylisoindolin-1-one] | 57 nM
CN1Cc2ccc(-c3nc(CF)c(F)cc3-c3cnn(CC4(C)CCCC4)c3)cc2C1=O [Example 115, 6-(5-fluoro-6-(fluoromethyl)-3-(1-((1-methylcyclo-pentyl)-methyl)-1H-pyrazol-4-yl)pyridin-2-yl)-2-methylisoindolin-1-one] | 47 nM
COCc1nc(-c2ccc3c(c2)C(=O)N(C)C3)c(-c2cnn(CC3(C)CCCC3)c2)cc1C [Example 116, 6-(6-(Methoxymethyl)-5-methyl-3-(1-((1-methylcyclopentyl)methyl)-1H-pyrazol-4-yl)pyridin-2-yl)-2-methylisoindolin-1-one] | 326 nM
C#CCN1Cc2ncc(-c3nc(CF)ccc3-c3cnn(CC4(C)CCCC4)c3)cc2C1=O [Example 117, 3-(6-(Fluoromethyl)-3-(1-((1-methylcyclopentyl)methyl)-1H-pyrazol-4-yl)pyridin-2-yl)-6-(prop-2-yn-1-yl)-6,7-dihydro-5H-pyrrolo[3,4-b]pyridin-5-one] | 32 nM
C#CCN1Cc2ncc(-c3nc4c(cc3-c3cnn(CC5(C)CCCC5)c3)CCC4)cc2C1=O [Example 118, 3-(3-(1-((1-methylcyclopentyl)methyl)-1H-pyrazol-4-yl)-6,7-dihydro-5H-cyclopenta[b]pyridin-2-yl)-6-(prop-2-yn-1-yl)-6,7-dihydro-5H-pyrrolo[3,4-b]pyridin-5-one] | 79 nM
CC1(Cn2cc(-c3cc4c(nc3-c3cnc5c(c3)C(=O)N(CCF)C5)CCC4)cn2)CCCC1 [Example 118A, 6-(2-fluoroethyl)-3-(3-(1-((1-methylcyclopentyl)methyl)-1H-pyrazol-4-yl)-6,7-dihydro-5H-cyclopenta[b]pyridin-2-yl)-6,7-dihydro-5H-pyrrolo[3,4-b]pyridin-5-one] | 50 nM
CC#CCN1Cc2ncc(-c3nc4c(cc3-c3cnn(CC5(C)CCCC5)c3)CCC4)cc2C1=O [Example 119, 6-(but-2-yn-1-yl)-3-(3-(1-((1-methylcyclopentyl)methyl)-1H-pyrazol-4-yl)-6,7-dihydro-5H-cyclopenta[b]pyridin-2-yl)-6,7-dihydro-5H-pyrrolo[3,4-b]pyridin-5-one] | 71 nM
C#CCN1Cc2ncc(-c3nc(C#N)ccc3-c3cnn(CC4(C)CCCC4)c3)cc2C1=O [Example 120, 5-(1-((1-methylcyclopentyl)methyl)-1H-pyrazol-4-yl)-6-(5-oxo-6-(prop-2-yn-1-yl)-6,7-dihydro-5H-pyrrolo[3,4-b]pyridin-3-yl)picolinonitrile] | 26 nM
C#CCN1Cc2ccc(-c3nc(C#N)ccc3-c3cnn(CC4(C)CCCC4)c3)cc2C1=O [Example 120A] | 17 nM
CC(C)N1Cc2ncc(-c3nc(C#N)ccc3-c3cnn(CC4(C)CCCC4)c3)cc2C1=O [Example 121, 6-(6-isopropyl-5-oxo-6,7-dihydro-5H-pyrrolo[3,4-b]pyridin-3-yl)-5-(1-((1-methylcyclopentyl)methyl)-1H-pyrazol-4-yl)picolinonitrile] | 134 nM
CC#CCN1Cc2ncc(-c3nc(C#N)ccc3-c3cnn(CC4(C)CCCC4)c3)cc2C1=O [Example 122, 6-(6-(but-2-yn-1-yl)-5-oxo-6,7-dihydro-5H-pyrrolo[3,4-b]pyridin-3-yl)-5-(1-((1-methylcyclopentyl)methyl)-1H-pyrazol-4-yl)picolinonitrile] | 41 nM
C#CCN1Cc2ccc(-c3nc4c(cc3-c3cnn(CC5(C)CCCC5)c3)CCC4)cc2C1=O [Example 123, 6-(3-(1-((1-methylcyclopentyl)methyl)-1H-pyrazol-4-yl)-6,7-dihydro-5H-cyclopenta[b]pyridin-2-yl)-2-(prop-2-yn-1-yl)isoindolin-1-one] | 48 nM
CN1Cc2ccc(-c3nc4c(cc3-c3cnn(CC5(C)CCCC5)c3)CCC4=O)cc2C1=O [Example 124, 2-(2-Methyl-3-oxoisoindolin-5-yl)-3-(1-((1-methylcyclopentyl)methyl)-1H-pyrazol-4-yl)-5,6-dihydro-7H-cyclopenta[b]pyridin-7-one] | 30 nM
CN1Cc2ccc(-c3nc(C#N)c(Cl)cc3-c3cnn(CC4(C)CCCC4)c3)cc2C1=O [Example 125, 3-Chloro-6-(2-methyl-3-oxoisoindolin-5-yl)-5-(1-((1-methylcyclopentyl)methyl)-1H-pyrazol-4-yl)picolinonitrile] | 26 nM
Cc1cc(F)c(-c2cnn(CC3(C)CCCC3)c2)c(-c2ccc3c(c2)C(=O)N(C)C3)n1 [Example 126, 6-(4-fluoro-6-methyl-3-(1-((1-methylcyclopentyl)methyl)-1H-pyrazol-4-yl)pyridin-2-yl)-2-methylisoindolin-1-one] | 71 nM
CN1Cc2ccc(-c3nc(F)c(F)cc3-c3cnn(CC4(C)CCCC4)c3)cc2C1=O [Example 127, 6-(5,6-Difluoro-3-(1-((1-methylcyclopentyl)methyl)-1H-pyrazol-4-yl)pyridin-2-yl)-2-methylisoindolin-1-one] | 90 nM
C#Cc1ccc(-c2cnn(CC3(C)CCCC3)c2)c(-c2cnc3c(c2)C(=O)N(CC2CC2)C3)n1 [Example 128, 6-(Cyclopropylmethyl)-3-(6-ethynyl-3-(1-((1-methylcyclopentyl)methyl)-1H-pyrazol-4-yl)pyridin-2-yl)-6,7-dihydro-5H-pyrrolo[3,4-b]pyridin-5-one] | 62 nM
CC1(Cn2cc(-c3ccc(C#N)nc3-c3cnc4c(c3)C(=O)N(CCO)C4)cn2)CCCC1 [Example 129, 6-(6-(2-Hydroxyethyl)-5-oxo-6,7-dihydro-5H-pyrrolo[3,4-b]pyridin-3-yl)-5-(1-((1-methylcyclopentyl)methyl)-1H-pyrazol-4-yl)picolinonitrile] | 39 nM

Source: US10933056B2, “3-(1H-pyrazol-4-yl)pyridine allosteric modulators of the M4 muscarinic acetylcholine receptor” (Merck Sharp & Dohme Corp., priority 2015, dated 2021)
